Tests used:
healthy rat lungs = test: Effect of Ac4GalNAz probe on lung graft quality during EVLP (morphology, physiology); details: 100 μM Ac4GalNAz vs vehicle perfusion, monitored every hour, 4-hour EVLP
Description: (§1) Ex vivo lung perfusion (EVLP) in rats: EVLP was performed using a commercially available rodent EVLP system (IL-2 Isolated Perfused Rat or Guinea Pig Lung System; Harvard Apparatus, Holliston, MA) as described elsewhere (Noda et al., 2014, Eur J Cardio-Thorac Surg., 45:e54-60; and (Noda et al., 2021, Sci Rep., 11:12265). Acellular Steen solution (XVIVO Perfusion AB, Denver, CO) was used for perfusate and lungs were medicated with methylprednisolone (SOLU-MEDROL®; Pfizer, Inc., New York, NY) and cephalosporin (Cefazolin; WG Critical Care LLC, Paramus, NJ) equally in all experimental groups using EVLP. […] Pulmonary artery pressure, peak airway pressure, and airway flow were monitored continuously, and dynamic lung compliance and pulmonary vascular resistance were also analyzed. […]
Airspace morphology evaluation: Following EVLP, the lungs receiving Ac4GaIN Az or vehicle control administration were fixed in Formalin, embedded in paraffin, and sectioned to a thickness of 5 μm. […] Horizontal and vertical mean linear intercepts of each image were measured by Fiji software (Schindelin et al., 2012, Exp Rev Resp Med., 11:119-128), following a protocol described elsewhere (Crowley et al., 2019, BMC Pulm Med., 19:206) The mean values of horizontal and vertical mean linear intercepts of the three images were calculated as the estimated airspace size average of each lung section.

rat lungs = test: Bioorthogonal azide labeling of NewS-glycoproteins during EVLP, histological detection; details: 100 μM Ac4GalNAz vs 0.1% DMSO in Steen solution, 4-hour EVLP
Description: as §1
Immunostaining: Rehydrated rat or human lung sections were incubated with antigen unmasking solution at 95° C. for 20 minutes. […] For quantification, three random fields were taken in each lung section. Azide >biotin intensities for each field taken were measured by Fiji software (Schindelin et al., supra). Laminin channels were converted to 8-bit and intensities were measured for Laminin coverage areas. […]

human lungs = test: Bioorthogonal azide labeling during EVLP, histological detection in human lung sections; details: Ac4GalNAz vs vehicle in perfusate, 6 hour EVLP
Description: Immunostaining: Rehydrated rat or human lung sections were incubated with antigen unmasking solution at 95° C. for 20 minutes. After cooling down, the sections were reacted with Alkyne-PEG4-biotin (Click Chemistry Tools, TA105) under copper-catalyzed cycloaddition (CuAAC) conditions (Rostovtsev et al., 2002, Angewandte Chemie., 114:2708-2711), or reacted without copper catalyst as a control. All samples were blocked with 1% bovine serum albumin (BSA) in PBS for 20 minutes and incubated with a primary antibody against Laminin (Abcam, Cambridge, UK; ab11575) at a dilution of 1:500. The slides were then stained with streptavidin conjugated to ALEXA FLUOR®-647 (Invitrogen, S21374) and Donkey-anti-Rabbit IgG conjugated to ALEXA FLUOR®-488 (Invitrogen, A32790) at a dilution of 1:500. All slides were mounted with DAPI-containing Fluoromount solution (SouthernBiotech, Birmingham, AL; 0100-20). Single-field images were taken using confocal microscopy and stitched images were taken by EVOS FL Auto 2 Imaging System (Thermo Fisher Scientific, Waltham, MA). For quantification, three random fields were taken in each lung section. Azide >biotin intensities for each field taken were measured by Fiji software (Schindelin et al., supra). Laminin channels were converted to 8-bit and intensities were measured for Laminin coverage areas. […]

post-EVLP lungs = test: LC-MS/MS proteomic analysis of Input and Eluate samples of lungs with or without Ac4GalNAz during EVLP; set-up: species or system rat; details: before affinity enrichment
Description: Chemoselective enrichment of azide-tagged proteins: Cellular protein extracts of the lungs were reacted with Alkyne-PEG4-desthiobiotin (Click Chemistry Tools, 1109) under CuAAC conditions. Proteins were precipitated with four volumes of ice-cold acetone at −20° C. overnight to remove unreacted Alkyne-PEG4-desthiobiotin. The protein pellets were air-dried and re-dissolved in 2% SDS in PBS (pH 7.40), and then saved as Input samples. Following quantification by BCA, an aliquot of each Input sample containing 1.7 mg of protein was introduced to 75 μL streptavidin-conjugated resin (Thermo Fisher Scientific; 53117) for desthiobiotinylated protein pull-down. Following a 3-hour binding period, Supernatants were collected and the resins were washed 7 times for 15 minutes each with 2% SDS, 40 mM additional NaCl in PBS (pH 7.40). The pulled-down proteins were eluted with 30 mM biotin in 2% SDS, 40 mM additional NaCl in PBS (pH 7.40) (Eluting buffer) at room temperature for 1 hour. […] Protein concentrations of the Eluate samples were determined by BCA assay, and the eluates were then stored at −80° C. for SDS-PAGE and proteomic analysis. […]
Samples were analyzed using a UPLC-MS/MS system consisting of an Easy-nLC 1200 ultra-high-pressure liquid chromatography system and an Orbitrap Fusion Lumos mass spectrometer (Thermo Fisher Scientific). […]

Lung compliance during EVLP (healthy rat lungs): no significant differences | Pulmonary vascular resistance during EVLP (healthy rat lungs): no significant differences | Effect on overall lung proteome (Input samples, Pearson correlation, hierarchical clustering) (post-EVLP lungs): did not significantly alter
SMILES: CC(=O)OC[C@H]1OC(OC(C)=O)[C@H](NC(=O)CN=[N+]=[N-])[C@@H](OC(C)=O)[C@H]1OC(C)=O (some centres unmarked) [Ac4GalNAz, N-azidoacetylgalactosamine-tetraacylated]
Azide labeling of lung tissue (azide→biotin fluorescence) (rat lungs): robust and specific azide labeling | Azide labeling of lung tissue (azide→biotin fluorescence) (human lungs): also was observed

Source: patent US20260169002A1, “PROFILING NEWLY-SYNTHESIZED GLYCOPROTEINS AS MOLECULAR SIGNATURES OF INJURY IN DONOR ORGANS” (Carnegie Mellon University, priority 2022, published 2026)
